The values that follow come from US20210070748A1, “INHIBITORS OF BRUTONS TYROSINE KINASE” (Pharmacyclics LLC, priority 2015, published 2021).

Holding throughout (format): biochemical
One assay has as its target EGFR (Homo sapiens, UniProt P00533). The assay can be described thus: Inhibition of a panel of kinases, in vitro HotSpot kinase assay: EGFR. The note with it: D-compounds panel data; 1 μM ATP. The method, then: (§1) The degree of inhibition of a panel of kinases is determined using the in vitro HotSpot kinase assay (purified enzymes, ^33P-ATP, an appropriate substrate and 1 μM ATP).

Another assay addresses T1, ITK (Homo sapiens, UniProt Q08881).
T1 sequence (Q08881 1-620): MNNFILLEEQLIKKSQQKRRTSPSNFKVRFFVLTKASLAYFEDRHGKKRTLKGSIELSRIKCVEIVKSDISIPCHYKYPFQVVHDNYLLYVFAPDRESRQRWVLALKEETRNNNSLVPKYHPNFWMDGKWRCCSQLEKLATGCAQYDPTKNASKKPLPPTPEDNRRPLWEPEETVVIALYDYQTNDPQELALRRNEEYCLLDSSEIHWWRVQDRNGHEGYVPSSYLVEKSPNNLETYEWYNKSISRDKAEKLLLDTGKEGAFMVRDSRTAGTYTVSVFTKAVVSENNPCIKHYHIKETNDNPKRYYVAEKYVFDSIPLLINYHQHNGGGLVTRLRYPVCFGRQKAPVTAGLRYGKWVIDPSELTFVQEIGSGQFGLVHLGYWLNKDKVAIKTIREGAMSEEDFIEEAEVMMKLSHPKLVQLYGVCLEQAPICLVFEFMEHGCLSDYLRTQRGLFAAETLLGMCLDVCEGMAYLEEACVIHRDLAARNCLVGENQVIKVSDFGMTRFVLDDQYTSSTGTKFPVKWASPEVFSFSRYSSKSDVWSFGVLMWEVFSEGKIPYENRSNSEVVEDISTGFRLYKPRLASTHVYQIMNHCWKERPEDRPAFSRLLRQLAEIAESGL
The experiment in a line: Inhibition of a panel of kinases, in vitro HotSpot kinase assay: ITK. The note with it: D-compounds panel data; 1 μM ATP. Here is the method:
as §1

The next assay concerns the target SRC (Homo sapiens, UniProt P12931). The assay can be described thus: Inhibition of a panel of kinases, in vitro HotSpot kinase assay: SRC. The note with it: D-compounds panel data; 1 μM ATP. Here is the method: as §1
A further assay has as its target T2, TEC (Homo sapiens, UniProt P42680).
T2 sequence (P42680 1-631): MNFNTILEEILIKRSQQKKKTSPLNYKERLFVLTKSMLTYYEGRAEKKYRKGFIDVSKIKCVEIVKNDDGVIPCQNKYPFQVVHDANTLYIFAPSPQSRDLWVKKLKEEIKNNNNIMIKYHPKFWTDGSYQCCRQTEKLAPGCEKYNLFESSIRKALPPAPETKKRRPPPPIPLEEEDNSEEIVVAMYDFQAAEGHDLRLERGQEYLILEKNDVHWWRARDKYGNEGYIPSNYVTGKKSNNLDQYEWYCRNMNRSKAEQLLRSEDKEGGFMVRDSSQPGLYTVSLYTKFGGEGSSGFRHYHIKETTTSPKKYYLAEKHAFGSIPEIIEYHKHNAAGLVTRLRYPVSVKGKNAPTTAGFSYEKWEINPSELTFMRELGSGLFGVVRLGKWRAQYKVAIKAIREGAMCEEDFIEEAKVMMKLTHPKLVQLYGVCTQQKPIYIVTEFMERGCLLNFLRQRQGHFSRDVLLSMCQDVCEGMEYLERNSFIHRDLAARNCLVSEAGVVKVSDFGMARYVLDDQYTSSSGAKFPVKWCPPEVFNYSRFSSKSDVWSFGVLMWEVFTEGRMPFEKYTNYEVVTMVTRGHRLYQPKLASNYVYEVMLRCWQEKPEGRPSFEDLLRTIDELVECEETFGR
The experiment in a line: Inhibition of a panel of kinases, in vitro HotSpot kinase assay: TEC. The note with it: D-compounds panel data; 1 μM ATP. The method, then:
as §1

Another assay addresses LCK (Homo sapiens, UniProt P06239). The experiment in a line: Inhibition of a panel of kinases, in vitro HotSpot kinase assay: LCK. The note with it: D-compounds panel data; 1 μM ATP; read-out: IC50 LCK.
The next assay deals with T3, JAK3 (Homo sapiens, UniProt P52333).
T3 sequence (P52333 1-1124): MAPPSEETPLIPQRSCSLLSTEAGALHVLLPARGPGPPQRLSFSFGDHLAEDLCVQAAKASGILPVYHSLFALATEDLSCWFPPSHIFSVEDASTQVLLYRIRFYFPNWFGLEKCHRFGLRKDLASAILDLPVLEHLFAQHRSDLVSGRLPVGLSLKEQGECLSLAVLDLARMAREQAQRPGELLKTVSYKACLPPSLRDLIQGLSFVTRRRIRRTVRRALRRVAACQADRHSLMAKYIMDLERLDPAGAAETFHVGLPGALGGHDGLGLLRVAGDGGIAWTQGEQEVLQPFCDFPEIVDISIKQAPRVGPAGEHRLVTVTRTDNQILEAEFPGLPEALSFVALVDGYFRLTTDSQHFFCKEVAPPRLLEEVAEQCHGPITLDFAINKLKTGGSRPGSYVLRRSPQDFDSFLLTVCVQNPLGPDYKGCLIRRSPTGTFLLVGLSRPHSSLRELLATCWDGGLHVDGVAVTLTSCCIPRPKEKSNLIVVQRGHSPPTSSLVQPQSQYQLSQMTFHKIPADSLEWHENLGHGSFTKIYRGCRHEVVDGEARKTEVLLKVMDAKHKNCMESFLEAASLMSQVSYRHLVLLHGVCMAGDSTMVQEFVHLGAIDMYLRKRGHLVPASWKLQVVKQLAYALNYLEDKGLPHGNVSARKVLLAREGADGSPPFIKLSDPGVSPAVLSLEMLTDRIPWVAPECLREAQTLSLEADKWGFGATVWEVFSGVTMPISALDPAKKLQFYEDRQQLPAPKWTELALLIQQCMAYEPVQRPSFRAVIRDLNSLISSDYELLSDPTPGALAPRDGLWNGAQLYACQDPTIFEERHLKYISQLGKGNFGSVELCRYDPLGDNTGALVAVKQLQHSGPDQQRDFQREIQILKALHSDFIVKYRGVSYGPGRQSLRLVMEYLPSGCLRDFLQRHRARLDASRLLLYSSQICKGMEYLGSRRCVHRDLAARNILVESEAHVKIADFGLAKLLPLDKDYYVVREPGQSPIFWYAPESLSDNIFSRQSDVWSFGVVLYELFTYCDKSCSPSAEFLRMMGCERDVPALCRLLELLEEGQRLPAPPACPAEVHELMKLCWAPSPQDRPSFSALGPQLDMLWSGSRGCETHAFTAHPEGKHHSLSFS
The experiment in a line: Inhibition of a panel of kinases, in vitro HotSpot kinase assay: JAK3. The note with it: D-compounds panel data; 1 μM ATP; read-out: IC50 JAK3.

Chain of EGFR (P00533 25-1210): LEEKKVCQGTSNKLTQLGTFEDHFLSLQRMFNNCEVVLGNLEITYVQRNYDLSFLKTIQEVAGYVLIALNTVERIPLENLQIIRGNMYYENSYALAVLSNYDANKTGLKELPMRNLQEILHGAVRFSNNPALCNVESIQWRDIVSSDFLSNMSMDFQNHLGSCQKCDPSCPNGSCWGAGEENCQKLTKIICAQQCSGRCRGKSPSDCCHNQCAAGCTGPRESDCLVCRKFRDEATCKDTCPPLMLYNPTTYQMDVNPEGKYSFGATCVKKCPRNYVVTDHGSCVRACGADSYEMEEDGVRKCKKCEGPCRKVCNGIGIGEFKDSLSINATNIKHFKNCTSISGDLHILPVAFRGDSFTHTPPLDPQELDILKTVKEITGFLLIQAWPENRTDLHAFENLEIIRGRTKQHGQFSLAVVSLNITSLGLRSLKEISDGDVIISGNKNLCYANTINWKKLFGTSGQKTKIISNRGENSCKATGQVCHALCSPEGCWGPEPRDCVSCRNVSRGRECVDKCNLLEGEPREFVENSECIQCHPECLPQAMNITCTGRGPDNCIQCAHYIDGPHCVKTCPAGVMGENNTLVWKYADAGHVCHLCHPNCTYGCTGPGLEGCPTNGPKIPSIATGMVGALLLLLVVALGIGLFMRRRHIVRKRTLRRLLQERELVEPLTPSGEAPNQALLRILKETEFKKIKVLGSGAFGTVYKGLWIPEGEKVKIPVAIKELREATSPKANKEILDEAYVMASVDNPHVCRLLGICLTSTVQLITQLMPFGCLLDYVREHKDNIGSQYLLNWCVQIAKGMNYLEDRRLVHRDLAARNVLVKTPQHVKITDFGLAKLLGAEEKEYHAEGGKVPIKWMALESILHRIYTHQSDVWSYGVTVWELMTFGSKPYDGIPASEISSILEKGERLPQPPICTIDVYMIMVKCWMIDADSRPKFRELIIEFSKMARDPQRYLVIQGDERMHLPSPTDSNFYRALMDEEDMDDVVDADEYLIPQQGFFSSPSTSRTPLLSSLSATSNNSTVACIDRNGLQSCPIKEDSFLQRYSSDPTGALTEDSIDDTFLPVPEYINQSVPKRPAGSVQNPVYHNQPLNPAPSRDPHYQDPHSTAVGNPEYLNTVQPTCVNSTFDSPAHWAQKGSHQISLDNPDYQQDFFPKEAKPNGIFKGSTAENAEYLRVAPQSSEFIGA
Chain of SRC (P12931 whole entry): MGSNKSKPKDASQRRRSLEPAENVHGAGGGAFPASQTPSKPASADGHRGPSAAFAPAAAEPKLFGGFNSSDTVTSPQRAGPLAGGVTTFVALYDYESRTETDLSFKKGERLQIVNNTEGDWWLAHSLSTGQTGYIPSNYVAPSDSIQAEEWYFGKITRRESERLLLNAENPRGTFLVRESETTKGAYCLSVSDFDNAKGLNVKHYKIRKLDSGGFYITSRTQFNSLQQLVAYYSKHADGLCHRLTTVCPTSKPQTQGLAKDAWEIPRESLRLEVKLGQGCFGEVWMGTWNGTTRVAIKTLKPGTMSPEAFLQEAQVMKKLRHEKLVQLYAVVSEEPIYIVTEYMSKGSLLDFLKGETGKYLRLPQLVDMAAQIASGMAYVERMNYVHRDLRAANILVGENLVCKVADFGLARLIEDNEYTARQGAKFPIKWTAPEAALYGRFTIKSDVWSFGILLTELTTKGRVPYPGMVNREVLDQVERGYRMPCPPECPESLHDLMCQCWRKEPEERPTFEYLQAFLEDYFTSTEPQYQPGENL
Chain of LCK (P06239 whole entry): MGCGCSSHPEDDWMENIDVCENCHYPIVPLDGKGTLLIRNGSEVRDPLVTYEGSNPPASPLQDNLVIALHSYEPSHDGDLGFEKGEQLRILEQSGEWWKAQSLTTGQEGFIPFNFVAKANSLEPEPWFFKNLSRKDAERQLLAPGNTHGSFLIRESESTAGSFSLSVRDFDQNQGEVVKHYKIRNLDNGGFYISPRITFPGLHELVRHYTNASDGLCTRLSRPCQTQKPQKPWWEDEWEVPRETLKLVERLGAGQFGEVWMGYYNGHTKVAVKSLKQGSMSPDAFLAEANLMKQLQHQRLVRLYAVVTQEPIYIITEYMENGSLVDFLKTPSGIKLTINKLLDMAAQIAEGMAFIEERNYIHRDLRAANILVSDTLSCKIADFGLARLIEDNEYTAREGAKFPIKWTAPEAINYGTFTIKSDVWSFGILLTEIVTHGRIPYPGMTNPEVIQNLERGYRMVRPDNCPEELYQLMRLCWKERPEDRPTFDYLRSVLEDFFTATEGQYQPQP

Consider `C[C@@H]1[C@H](NC(=O)c2ccc(C(O)C(F)(F)F)cc2)CCCN1c1cnc(C(N)=O)c(Nc2cnn(C)c2)n1` (single isomer, unassigned) [Example D-250], for which the IC50 against EGFR is 100 to 1000 nM; against ITK, 100 to 1000 nM; on SRC it was 10 to 100 nM; against TEC, at most 10 nM; on LCK it was 10 to 100 nM; at JAK3, 100 to 1000 nM.

With `C[C@@H]1[C@H](NC(=O)c2ccc(C(C)(C)F)cc2)CCCN1c1cnc(C(N)=O)c(Nc2cnn(C)c2)n1` [Example D-251, 5-[(2R,3R)-3-[4-(2-fluoropropan-2-yl)benzamido]-2-methylpiperidin-1-yl]-3-[(1-methyl-1H-pyrazol-4-yl)amino]pyrazine-2-carboxamide], the IC50 against EGFR is 1000 to 10000 nM; against ITK, 100 to 1000 nM; on SRC, 10 to 100 nM; against TEC, at most 10 nM; at LCK it was 10 to 100 nM; on JAK3 it was 1000 to 10000 nM.

With `C[C@@H]1[C@H](NC(=O)c2cc(C3CC3)n[nH]2)CCCN1c1cnc(C(N)=O)c(Nc2cnn(C)c2)n1` [Example D-252, 5-[(2R,3R)-3-(3-cyclopropyl-1H-pyrazole-5-amido)-2-methylpiperidin-1-yl]-3-[(1-methyl-1H-pyrazol-4-yl)amino]pyrazine-2-carboxamide], the concentration for half-maximal inhibition (IC50) against EGFR was 100 to 1000 nM; against ITK, 10 to 100 nM; against SRC, 10 to 100 nM; against TEC, at most 10 nM; on LCK, 10 to 100 nM; on JAK3, 100 to 1000 nM.

For the compound `C[C@@H]1[C@H](NC(=O)c2ccc(C3CC3)cn2)CCCN1c1cnc(C(N)=O)c(Nc2ccc(OC3CCN(C)CC3)cc2)n1` [Example D-297, 5-[(2R,3R)-3-(5-cyclopropylpyridine-2-amido)-2-methylpiperidin-1-yl]-3-({4-[(1-methylpiperidin-4-yl)oxy]phenyl}amino)pyrazine-2-carboxamide], the IC50 on EGFR is 100 to 1000 nM; against ITK, 10 to 100 nM; against SRC it was 10 to 100 nM; on TEC, at most 10 nM; at LCK, 10 to 100 nM; at JAK3, 100 to 1000 nM.

Take `C[C@@H]1[C@H](NC(=O)c2ccc(C3CC3)cc2Cl)CCCN1c1cnc(C(N)=O)c(Nc2cnn(C)c2)n1` [Example D-20, 5-[(2R,3R)-3-(2-chloro-4-cyclopropylbenzamido)-2-methylpiperidin-1-yl]-3-[(1-methyl-1H-pyrazol-4-yl)amino]pyrazine-2-carboxamide]: the IC50 at EGFR fell in the range of 1000 to 10000 nM; at ITK, 1000 to 10000 nM; against SRC, 100 to 1000 nM; against TEC, 10 to 100 nM; at LCK, 100 to 1000 nM; on JAK3 it was 1000 to 10000 nM.

For the compound `C[C@@H]1[C@H](NC(=O)c2cc(C(C)(C)C)on2)CCCN1c1cnc(C(N)=O)c(Nc2cnn(C)c2)n1` [Example D-247, 5-[(2R,3R)-3-(5-tert-butyl-1,2-oxazole-3-amido)-2-methylpiperidin-1-yl]-3-[(1-methyl-1H-pyrazol-4-yl)amino]pyrazine-2-carboxamide], the IC50 is 1000 to 10000 nM on EGFR; 100 to 1000 nM on ITK; 100 to 1000 nM against SRC; 10 to 100 nM on TEC; 100 to 1000 nM on LCK; 1000 to 10000 nM at JAK3.

As for `C[C@@H]1[C@H](NC(=O)c2ccc(C(C)(O)CO)cc2)CCCN1c1cnc(C(N)=O)c(Nc2cnn(C)c2)n1` (single isomer, unassigned) [Example D-256], the IC50 at EGFR was 100 to 1000 nM; against ITK it was 100 to 1000 nM; against SRC, 10 to 100 nM; against TEC, at most 10 nM; on LCK, 10 to 100 nM; at JAK3 it was 100 to 1000 nM.

For `C[C@@H]1[C@H](NC(=O)c2ccc(C3CC3)cc2)CCCN1c1cnc(C(N)=O)c(Nc2cnn(C3CC3)c2)n1` [Example D-279, 3-[(1-cyclopropyl-1H-pyrazol-4-yl)amino]-5-[(2R,3R)-3-(4-cyclopropylbenzamido)-2-methylpiperidin-1-yl]pyrazine-2-carboxamide], the IC50 at EGFR was 1000 to 10000 nM; at ITK, 100 to 1000 nM; on SRC, 100 to 1000 nM; at TEC it was at most 10 nM; on LCK it was 100 to 1000 nM; at JAK3 it was over 10000 nM.

Take `CC(=O)N1CCC(n2cc(Nc3nc(N4CCC[C@@H](NC(=O)c5ccc(C6CC6)cc5)[C@H]4C)cnc3C(N)=O)cn2)CC1` [Example D-283, 3-{[1-(1-acetylpiperidin-4-yl)-1H-pyrazol-4-yl]amino}-5-[(2R,3R)-3-(4-cyclopropylbenzamido)-2-methylpiperidin-1-yl]pyrazine-2-carboxamide]: the IC50 against EGFR is 1000 to 10000 nM; against ITK, 100 to 1000 nM; against SRC it was 10 to 100 nM; against TEC, at most 10 nM; at LCK, 10 to 100 nM; on JAK3, 1000 to 10000 nM.

As to `C[C@@H]1[C@H](NC(=O)c2ccc3c(c2)CCC(C)(C)O3)CCCN1c1cnc(C(N)=O)c(Nc2cnn(C)c2)n1` [Example D-258, 5-[(2R,3R)-3-(2,2-dimethyl-3,4-dihydro-2H-1-benzopyran-6-amido)-2-methylpiperidin-1-yl]-3-[(1-methyl-1H-pyrazol-4-yl)amino]pyrazine-2-carboxamide], the 50% inhibitory concentration (IC50) is 1000 to 10000 nM against EGFR; 100 to 1000 nM at ITK; 10 to 100 nM against SRC; at most 10 nM at TEC; 100 to 1000 nM on LCK; 1000 to 10000 nM on JAK3.

Consider `CCn1cc(Nc2nc(N3CCC[C@@H](NC(=O)c4ccc(C5CC5)cc4)[C@H]3C)cnc2C(N)=O)cn1` [Example D-273, 5-[(2R,3R)-3-(4-cyclopropylbenzamido)-2-methylpiperidin-1-yl]-3-[(1-ethyl-1H-pyrazol-4-yl)amino]pyrazine-2-carboxamide], for which the half-inhibitory concentration (IC50) was 100 to 1000 nM against EGFR; 100 to 1000 nM against ITK; 100 to 1000 nM against SRC; 10 to 100 nM at TEC; 100 to 1000 nM on LCK; 1000 to 10000 nM at JAK3.

Broadly, the IC50 is the concentration that gives 50% inhibition.
